Measured values: paper PMC8148468, “Shikimic acid protects skin cells from UV-induced senescence through activation of the NAD+-dependent deacetylase SIRT1” (Aging (Albany NY), 2021)

Assays:
[1] = target: T1, FLAG-SIRT1 purified from HEK293 cells (Homo sapiens, UniProt Q96EB6); test: In vitro SIRT1 deacetylation assay; format: biochemical; conditions: -/+ NAD+, Shikimic acid 1 μM-10mM
T1 construct: FLAG; made in house; host or cells: HEK293 (HEK293F)
T1 sequence (Q96EB6 1-747): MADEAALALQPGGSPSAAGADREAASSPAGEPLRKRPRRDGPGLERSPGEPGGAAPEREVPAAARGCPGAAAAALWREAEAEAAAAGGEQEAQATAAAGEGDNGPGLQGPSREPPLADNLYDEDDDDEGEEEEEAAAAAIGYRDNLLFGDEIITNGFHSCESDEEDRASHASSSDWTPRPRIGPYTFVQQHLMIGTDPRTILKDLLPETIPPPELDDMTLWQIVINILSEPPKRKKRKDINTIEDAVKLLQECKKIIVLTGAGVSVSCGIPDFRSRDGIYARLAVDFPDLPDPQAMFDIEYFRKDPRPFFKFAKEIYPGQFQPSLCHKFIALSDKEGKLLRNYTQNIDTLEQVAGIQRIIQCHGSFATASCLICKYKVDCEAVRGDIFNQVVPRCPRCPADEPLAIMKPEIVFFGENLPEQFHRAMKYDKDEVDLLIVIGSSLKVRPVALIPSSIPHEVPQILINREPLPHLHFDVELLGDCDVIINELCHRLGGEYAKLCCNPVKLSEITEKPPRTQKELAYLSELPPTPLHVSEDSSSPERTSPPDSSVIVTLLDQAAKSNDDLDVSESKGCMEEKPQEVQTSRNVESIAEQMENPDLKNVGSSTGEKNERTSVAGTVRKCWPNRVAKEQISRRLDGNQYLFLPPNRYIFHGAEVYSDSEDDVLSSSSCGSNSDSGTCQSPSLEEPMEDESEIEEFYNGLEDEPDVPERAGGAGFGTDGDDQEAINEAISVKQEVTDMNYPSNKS
Method: Figure 3 (A) Schematic representation of the protocol for senescence induction using UVB irradiation and study of EX527 involvement in the effect of Shikimic acid. Cells were treated with or without shikimic acid -/+ EX-527 from day 1 until day 7 after seeding, irradiated with UVB on days 2 and 5 and harvested for analysis on day 7. (B) Phase-contrast (left column) and bright field (right column) microscope images of β-Gal staining showing non-irradiated cells non-treated and treated with shikimic acid (10, 25 and 50 mM), UVB-irradiated cells non-treated and treated with shikimic acid (10, 25 and 50 mM), shikimic acid (10, 25 and 50 mM) + EX-527 1 μM and EX-527 1 μM. (C) Percentage of SA-β-Gal positive cells and (D) relative HAS2 mRNA levels in non-irradiated cells non-treated and treated with Shikimic acid (10, 25 and 50 mM), UVB-irradiated cells non-treated and treated with Shikimic acid (10, 25 and 50 mM), Shikimic acid (10, 25 and 50 mM) + EX-527 1 μM and EX-527 1 μM. (E) Percentage of SA-β-Gal as in (C) of SA 25 or 50mM upon siRNA mediated downregulation of SIRT1, SIRT2 or SIRT6. siScr: scramble siRNA. […] SIRT1 activity was then evaluated by analyzing acetylation of H3K9, H4K16 and p53K382 by Western blot. […]
The in vitro SIRT1 deacetylation assay was performed as previously described. […] Deacetylation was monitored by quantification of H3K9ac/H3, H4K16ac/H4 and p53K382ac/p53 levels.

γH2AX = γH2AX immunofluorescence assay; format: cell-based, human; conditions: UVB irradiation, SA 10, 25, 50 mM
Method: Figure 4 (A) SRB and Trypan blue cell viability assays performed in cells treated with or without Shikimic acid (5, 10, 25 and 50 mM) for 24h. (B) Apoptosis detection using the Annexin V-FITC/PI double staining followed by flow cytometry in non-irradiated and non-treated cells, irradiated and non-treated cells and irradiated cells treated with Shikimic acid (10, 25 and 50 mM). (C) Representation and statistical analysis of the percentage of apoptotic cells in each of the conditions analyzed. (D) Cell cycle analysis using PI staining followed by flow cytometry. (E) Relative p16^INK4a mRNA levels monitored by qPCR in the indicated conditions. Student T-test, *p<0.05. (F) Immunofluorescence of γH2AX in non-irradiated and non-treated cells, irradiated and non-treated cells and irradiated cells treated with Shikimic acid (10, 25 and 50 mM). […]
The staining and detection of γH2AX foci by immunofluorescence was performed as previously described. Slides were analyzed by confocal microscopy using a Confocal Leica SP5 microscope (Leica Microsystems) with a 63x objective.

SMILES: O=C(O)C1=C[C@@H](O)[C@@H](O)[C@H](O)C1 [Shikimic acid]
- SIRT1 deacetylation activity in vitro (H3K9ac, H4K16ac, p53K382ac) [1]: did not alter SIRT1 deacetylation activity in vitro
- accumulation of DNA damage (γH2AX) (γH2AX): did not alter the accumulation of DNA damage
